The record followed here is patent US20190224201A1, “PHARMACEUTICAL COMPOSITION COMPRISING NEPTINIB OR SALT THEREOF AND METHOD FOR CONTROLLING IMPURITY THEREOF” (SHENZHEN NEPTUNUS PHARMACEUTICAL RESEARCH INSTITUTE CO., …, priority 2016, published 2019).

Holding throughout (assay type): physicochemical
Data set [1] can be described thus: API and excipients compatibility study (10 days of stress testing of mixed powders).
Data set [2] is described as follows: Accelerated stability test, detection of impurity A and total impurity by HPLC. To be noted: active ingredient alone, accelerated stability test at 40° C. for 6 months. The source says:
The method for detecting impurity A and total impurity was shown as follows:
Equipment: Agilent 1260 series;
Column: XBridge Shield RP18 column (100×4.6 mm, 3.5 μm);
Mobile phase A: 0.05 mol/L potassium dihydrogen phosphate solution (adjusted to pH 7.2 with sodium hydroxide solution)-acetonitrile (20:80);
Mobile phase B: 0.05 mol/L potassium dihydrogen phosphate solution (adjusted to pH 7.2 with sodium hydroxide solution)-acetonitrile (40:60);
Detection wavelength: 247 nm;
Column temperature: 30° C.;
Solvent: acetonitrile-water (50:50).

The nature of data set [3]: Risk assessment of the API and excipients compatibility. The source says: Level 1 (low risk): maximum single impurity is less than 0.1% and total impurity is less than 0.2%;
Level 2 (medium risk): maximum single impurity is 0.1-0.2% or total impurity is 0.2%-0.4%;
Level 3 (high risk): maximum single impurity is more than 0.2% or total impurity is more than 0.4%.

Setting [4] is: Day 10, Illumination (4500 ± 5001x).

As to `CCOc1cc2ncnc(Nc3ccc(F)c(Cl)c3)c2cc1NC(=O)/C=C/CN(C)C` [API, (E)-N-(4-((3-chloro-4-fluorophenyl)amino)-7-ethoxyquinazolin-6-yl)-4-(dimethylamino)but-2-enamide], the “Maximum single impurity (%)” value came out at 0.02% in data set [1] (Day 0); 0.02% in data set [1] (Day 10, 60° C. ± 2° C.); 0.12% in data set [1] (setting [4]); 0.02% in data set [1] (Day 10, RH75% ± 5%); 0.02% in data set [1] (Day 10, RH92.5% ± 5%). For the same compound, the “Total impurity (%)” value in data set [1] (Day 0) turned out to be 0.02%; in data set [1] (Day 10, 60° C. ± 2° C.), 0.04%; in data set [1] (setting [4]), 0.14%; in data set [1] (Day 10, RH75% ± 5%), 0.02%; in data set [1] (Day 10, RH92.5% ± 5%) it was 0.02%. Further, the “change in the content of impurities in the active ingredient” value in data set [2] is listed as “no significant change”. The “Risk level assessment value 60° C.” value in data set [3] (60° C., 10 days stress testing) was 1 (Level 1 (low risk): maximum single impurity is less than 0.1% and total impurity is less than 0.2%). For the same compound, the “Risk level assessment value Illumination” value in data set [3] (Illumination, 10 days stress testing) is 2 (Level 2 (medium risk): maximum single impurity is 0.1-0.2% or total impurity is 0.2%-0.4%). In data set [3] (RH75%, 10 days stress testing), the “Risk level assessment value RH75%” value was 1 (Level 1 (low risk): maximum single impurity is less than 0.1% and total impurity is less than 0.2%). Moreover, the “Risk level assessment value RH92.5%” value in data set [3] (RH92.5%, 10 days stress testing) was 1 (Level 1 (low risk): maximum single impurity is less than 0.1% and total impurity is less than 0.2%). The “Risk level assessment value Total” value in data set [3] (sum over RH75%, RH92.5%, 60° C., Illumination) was 5.
